Key:
[1] = tested on: Botrytis cinerea; type: cell-based; details: 120 h, 25 ppm by volume, Vogel medium, 20° C., five days, dark, read-out: growth inhibition ratio
[2] = tested on: Fusarium graminearum; assay: microbe, parasite or virus in culture; type: cell-based; details: 96 h, read-out: growth inhibition ratio
[3] = tested on: Botrytis cinerea; assay: Control test of cucumber gray mold (sprayed young cucumber seedlings); type: in vivo; details: 96 h, four days after inoculation; for pest or weed control at 25 ppm: 25 ppm by mass spray; for pest or weed control at 125 ppm: 125 ppm by mass spray
Protocol: Then, the drug liquid was sprayed onto young cucumber seedlings cultivated in a nursery pot (variety “Jihai”-based, cotyledon stage), and then air-dried. […] They were left still in a moist room at 20° C. Four days after inoculation, leaves of the young cucumber seedlings were visually observed, and the control value was calculated from the lesion area ratio in accordance with the following equation. [formula]

[4] = tested on: Venturia inaequalis; assay: Control test of apple scab disease (sprayed young apple seedlings); type: in vivo; details: 125 ppm by mass spray, 12 to 14 days after inoculation
[5] = tested on: Erysiphe graminis f.sp.tritici; assay: Control test of wheat powdery mildew disease (sprayed young wheat seedlings); type: in vivo; details: Blumeria graminis, 144 h, 125 ppm by mass spray, six days after inoculation
[6] = tested on: Colletotrichum acutatum; assay: Fungicidal effect test against fungi causing apple anthracnose; details: 96 h, read-out: growth inhibition ratio
[7] = tested on: Glomerella cingulata; assay: Fungicidal effect test against fungi causing grape ripe rot disease; details: Colletotrichum gloeosporioides, 72 h, read-out: growth inhibition ratio

COC(=O)N(Cc1ccc(C)cc1C)NC(=O)c1cc(C)nnc1Oc1cccc(C2CC2)c1 [b-80]
≥ 75%: inhibition of growth at 25 ppm [1] | inhibition of growth at 25 ppm [2] | pest or weed control at 25 ppm [3] | pest or weed control at 125 ppm [3] | pest or weed control at 125 ppm [4] | pest or weed control at 125 ppm [5] | inhibition of growth at 25 ppm [6] | inhibition of growth at 25 ppm [7]

COC(=O)N(Cc1ccc(C)cc1C)NC(=O)c1cc(C)ncc1Oc1cccc(Br)c1F [b-88]
≥ 75%: inhibition of growth at 25 ppm [1] | inhibition of growth at 25 ppm [2] | pest or weed control at 25 ppm [3] | pest or weed control at 125 ppm [3] | pest or weed control at 125 ppm [4] | pest or weed control at 125 ppm [5] | inhibition of growth at 25 ppm [6] | inhibition of growth at 25 ppm [7]

COC(=O)N(Cc1ccc(C)cc1C)NC(=O)c1c(Oc2cccc(C3CC3)c2F)nnc2ccccc12 [b-90, Methyl 2-(3-(3-cyclopropyl-2-fluorophenoxy)cinnoline-4-carbonyl)-1-(2,4-dimethylbenzyl)hydrazine-1-carboxylate]
≥ 75%: inhibition of growth at 25 ppm [1] | inhibition of growth at 25 ppm [2] | pest or weed control at 25 ppm [3] | pest or weed control at 125 ppm [3] | pest or weed control at 125 ppm [4] | pest or weed control at 125 ppm [5] | inhibition of growth at 25 ppm [6] | inhibition of growth at 25 ppm [7]

COC(=O)N(Cc1ccc(C)cc1C)NC(=O)c1cc(OC)ncc1Oc1cccc(C2CC2)c1F [b-94]
≥ 75%: inhibition of growth at 25 ppm [1] | inhibition of growth at 25 ppm [2] | pest or weed control at 25 ppm [3] | pest or weed control at 125 ppm [3] | pest or weed control at 125 ppm [4] | pest or weed control at 125 ppm [5] | inhibition of growth at 25 ppm [6] | inhibition of growth at 25 ppm [7]

COC(=O)N(Cc1ccc(OC)cc1C)NC(=O)c1c(Oc2cccc(C3CC3)c2F)nnc(Cl)c1C [b-106]
≥ 75%: inhibition of growth at 25 ppm [1] | inhibition of growth at 25 ppm [2] | pest or weed control at 25 ppm [3] | pest or weed control at 125 ppm [3] | pest or weed control at 125 ppm [4] | pest or weed control at 125 ppm [5] | inhibition of growth at 25 ppm [6] | inhibition of growth at 25 ppm [7]

COC(=O)N(Cc1ccc(OC)cc1C)NC(=O)c1cc(C)ncc1Oc1cccc(Br)c1 [b-107]
≥ 75%: inhibition of growth at 25 ppm [1] | inhibition of growth at 25 ppm [2] | pest or weed control at 125 ppm [3] | pest or weed control at 125 ppm [4] | pest or weed control at 125 ppm [5] | inhibition of growth at 25 ppm [6] | inhibition of growth at 25 ppm [7]

COC(=O)N(Cc1ccc(OC)cc1C)NC(=O)c1cc(C)ncc1Oc1cccc(Br)c1F [b-108]
≥ 75%: inhibition of growth at 25 ppm [1] | inhibition of growth at 25 ppm [2] | pest or weed control at 25 ppm [3] | pest or weed control at 125 ppm [3] | pest or weed control at 125 ppm [4] | pest or weed control at 125 ppm [5] | inhibition of growth at 25 ppm [6] | inhibition of growth at 25 ppm [7]

COC(=O)N(Cc1ccc(C)cc1C)NC(=O)c1cc(Br)ncc1Oc1cccc(Br)c1F [b-111]
≥ 75%: inhibition of growth at 25 ppm [1] | inhibition of growth at 25 ppm [2] | pest or weed control at 125 ppm [3] | pest or weed control at 125 ppm [4] | pest or weed control at 125 ppm [5] | inhibition of growth at 25 ppm [6] | inhibition of growth at 25 ppm [7]

COC(=O)N(Cc1ccc(C)cc1C)NC(=O)c1cc(C)nnc1Oc1cccc(F)c1 [b-112]
≥ 75%: inhibition of growth at 25 ppm [1] | inhibition of growth at 25 ppm [2] | pest or weed control at 125 ppm [3] | pest or weed control at 125 ppm [4] | pest or weed control at 125 ppm [5] | inhibition of growth at 25 ppm [6] | inhibition of growth at 25 ppm [7]

COC(=O)N(Cc1ccc(C)cc1C)NC(=O)c1cc(C)nnc1Oc1cccc(Cl)c1 [b-113]
≥ 75%: inhibition of growth at 25 ppm [1] | inhibition of growth at 25 ppm [2] | pest or weed control at 25 ppm [3] | pest or weed control at 125 ppm [3] | pest or weed control at 125 ppm [4] | pest or weed control at 125 ppm [5] | inhibition of growth at 25 ppm [6] | inhibition of growth at 25 ppm [7]

Reference: patent US20260198493A1, “HYDRAZIDE COMPOUND AND AGRICULTURAL/HORTICULTURAL FUNGICIDE” (Nippon Soda Co., Ltd., priority 2022, published 2026)
